Test results reported in patent US20170182088A1, “METHOD AND APPARATUS FOR ADMINISTERING NITRIC OXIDE WITH SUPPLEMENTAL DRUGS” (GENO LLC, priority 2015, published 2017).

Assays:
neonatal rats = conditions: cited from earlier work
PMN (Neutrophil) = conditions: cited from earlier work
TRPM2 = biological target: T1, TRPM2 (Mus musculus, UniProt Q91YD4); conditions: responses comparable to fMLP-stimulated TRPM2 KO PMN; cited from earlier work
T1 construct: endogenous in cells; host or cells: PMN (neutrophils), fMLP-stimulated; work retold from a cited abstract (J. Immunol. 2010, 184)
T1 sequence (Q91YD4 whole entry): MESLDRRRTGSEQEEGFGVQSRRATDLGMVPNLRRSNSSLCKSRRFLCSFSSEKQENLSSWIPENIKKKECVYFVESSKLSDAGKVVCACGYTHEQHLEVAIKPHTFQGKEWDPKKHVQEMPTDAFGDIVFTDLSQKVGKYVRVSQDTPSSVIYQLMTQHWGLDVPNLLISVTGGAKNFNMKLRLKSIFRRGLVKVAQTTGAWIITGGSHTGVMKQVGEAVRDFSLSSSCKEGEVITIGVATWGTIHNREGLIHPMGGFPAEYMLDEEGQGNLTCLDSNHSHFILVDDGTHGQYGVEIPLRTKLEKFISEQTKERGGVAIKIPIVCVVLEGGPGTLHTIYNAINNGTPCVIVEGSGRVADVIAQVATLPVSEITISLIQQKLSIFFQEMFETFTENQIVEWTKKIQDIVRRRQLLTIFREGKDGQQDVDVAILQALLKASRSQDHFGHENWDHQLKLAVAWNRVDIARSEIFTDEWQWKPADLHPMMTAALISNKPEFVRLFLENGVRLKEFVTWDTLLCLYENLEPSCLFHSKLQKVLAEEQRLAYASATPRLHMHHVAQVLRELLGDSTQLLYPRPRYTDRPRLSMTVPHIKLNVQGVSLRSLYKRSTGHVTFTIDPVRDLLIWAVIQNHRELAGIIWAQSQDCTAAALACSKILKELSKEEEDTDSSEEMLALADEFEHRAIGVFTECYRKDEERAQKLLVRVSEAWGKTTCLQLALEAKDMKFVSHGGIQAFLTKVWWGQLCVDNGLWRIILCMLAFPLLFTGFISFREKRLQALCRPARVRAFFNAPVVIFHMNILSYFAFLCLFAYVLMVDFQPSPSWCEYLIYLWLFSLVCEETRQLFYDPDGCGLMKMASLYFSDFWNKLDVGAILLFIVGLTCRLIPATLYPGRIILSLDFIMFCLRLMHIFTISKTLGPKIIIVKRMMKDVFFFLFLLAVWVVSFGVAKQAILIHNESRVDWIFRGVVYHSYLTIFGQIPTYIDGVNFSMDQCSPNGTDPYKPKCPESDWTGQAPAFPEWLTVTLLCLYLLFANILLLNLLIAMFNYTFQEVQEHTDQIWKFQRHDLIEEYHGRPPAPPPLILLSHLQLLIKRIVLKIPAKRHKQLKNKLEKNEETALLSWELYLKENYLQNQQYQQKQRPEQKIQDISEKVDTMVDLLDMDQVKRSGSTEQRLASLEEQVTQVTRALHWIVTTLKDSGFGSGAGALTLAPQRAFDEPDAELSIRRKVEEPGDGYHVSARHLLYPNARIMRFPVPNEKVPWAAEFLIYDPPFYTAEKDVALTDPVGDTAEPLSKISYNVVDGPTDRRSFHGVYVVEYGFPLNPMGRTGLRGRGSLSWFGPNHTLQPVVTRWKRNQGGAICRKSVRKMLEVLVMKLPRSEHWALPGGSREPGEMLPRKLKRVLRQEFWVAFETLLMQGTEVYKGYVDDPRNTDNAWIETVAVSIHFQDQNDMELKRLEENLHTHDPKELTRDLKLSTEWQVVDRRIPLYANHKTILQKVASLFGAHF

Nox4 = biological target: T2, Nox4 (Homo sapiens, UniProt Q9NPH5); conditions: cited from earlier work
T2 construct: endogenous in cells; host or cells: pulmonary vascular wall cells under hypoxia
T2 sequence (Q9NPH5 1-578): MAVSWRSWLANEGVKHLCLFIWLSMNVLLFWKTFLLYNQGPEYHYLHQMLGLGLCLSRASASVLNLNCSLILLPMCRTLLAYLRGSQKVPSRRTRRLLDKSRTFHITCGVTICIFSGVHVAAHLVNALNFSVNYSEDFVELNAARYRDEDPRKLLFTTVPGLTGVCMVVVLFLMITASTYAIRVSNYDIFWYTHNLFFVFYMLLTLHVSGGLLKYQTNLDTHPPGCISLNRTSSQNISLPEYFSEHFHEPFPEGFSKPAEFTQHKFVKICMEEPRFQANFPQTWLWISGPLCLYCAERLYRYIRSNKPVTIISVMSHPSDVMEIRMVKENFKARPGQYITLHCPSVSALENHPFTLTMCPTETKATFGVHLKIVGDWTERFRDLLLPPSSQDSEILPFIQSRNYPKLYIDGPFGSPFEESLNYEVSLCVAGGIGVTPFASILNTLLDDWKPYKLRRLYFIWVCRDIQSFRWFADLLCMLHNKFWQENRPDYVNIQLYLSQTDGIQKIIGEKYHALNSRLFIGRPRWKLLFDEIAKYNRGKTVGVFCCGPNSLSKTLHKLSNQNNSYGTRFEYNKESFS
T2 sequence (P13498 1-195 partner): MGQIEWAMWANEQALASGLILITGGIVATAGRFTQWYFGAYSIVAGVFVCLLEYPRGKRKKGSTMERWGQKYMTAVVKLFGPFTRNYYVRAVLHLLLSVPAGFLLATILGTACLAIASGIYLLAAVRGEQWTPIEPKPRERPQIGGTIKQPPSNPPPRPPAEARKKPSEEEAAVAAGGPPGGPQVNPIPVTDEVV

Angiotensin II = conditions: cited from earlier work
neonatal piglets = conditions: short-term inhaled exposure; cited from earlier work
[1] = test system: mice with intratracheal administration of LPS; test: LPS-induced lung injury in mice (intratracheal LPS); type: in vivo; conditions: for lung injury after intratracheal LPS: 2% H2 and/or 20 ppm NO for 3 hours starting at 5 minutes or 3 hours after LPS; for pulmonary inflammation and cell apoptosis: H2 and/or NO treatment
brain injury = conditions: inhaled, acute rat model; cited from earlier work
polymicrobial sepsis = test: Polymicrobial sepsis-induced lung injury; type: in vivo; conditions: H2 and/or NO treatment
Text: However until applicants' discovery, there has not been a successful combination of hydrogen gas with breathing gas using the claimed apparatus and methods. Applicants have discovered that NO's effect as an antioxidant may be enhanced by eliminating highly reactive by-products of NO inhalation such as peroxynitrite, by adding H2 to inhaled NO gas.

NF-κB = test: LPS-induced pulmonary NF-κB activation; type: in vivo, mice; conditions: H2 and/or NO treatment
rats = conditions: inhaled; cited from earlier work
CTGF [2] = conditions: fibroblasts exposed to TGF-β; cited from earlier work
CTGF [3] = conditions: infusion, scleroderma patients; cited from earlier work

## COC(=O)[C@@H](N)CCCNC(=N)N[N+](=O)[O-] [Nw-nitro-l-arginine methyl ester]
Neonatal rats
  survival on exposure to >95% O2 compared with control rats: significantly fewer survived

## Clc1ccc(COC(Cn2ccnc2)c2ccc(Cl)cc2Cl)cc1 (stereo not drawn) [Econazole]
PMN (Neutrophil)
  PMN directionality: significantly inhibited
TRPM2
  Ca2+ influx: blocked

## O=C(O)c1ccccc1Nc1cccc(C(F)(F)F)c1 [FA]
TRPM2
  Ca2+ influx: blocked

## CN(C)c1cccc(-c2c3c(=O)n(-c4ccccc4Cl)[nH]c3cc(=O)n2C)c1 [GKT137831]
Nox4
  hypoxia-induced pulmonary vascular cell proliferation: attenuates

## c1ccc2c(c1)[I+]c1ccccc1-2 [diphenylene iodonium]
Angiotensin II
  Ang II-stimulated DNA synthesis, cell migration, pro-collagen α1(I) mRNA expression, secretion of TGF-β1 and inflammatory cytokines: attenuated

## O=O [O2, oxygen]
Neonatal piglets
  lung collagen accumulation: increases

## Clc1ccccc1C(c1ccccc1)(c1ccccc1)n1ccnc1 [clotrimazole]
PMN (Neutrophil)
  PMN directionality: significantly inhibited
TRPM2
  Ca2+ influx: blocked

## [HH] [H2, hydrogen]
[1]
  lung injury after intratracheal LPS: significantly improved
  pulmonary inflammation and cell apoptosis: down-regulated
Brain injury
  brain injury associated with focal ischemia-reperfusion: markedly suppressed
Polymicrobial sepsis
  lung injury in polymicrobial sepsis: significantly attenuated
NF-κB
  LPS-induced pulmonary early and late NF-κB activation: inhibited

## [N]=O [NO, nitric oxide]
Neonatal piglets
  lung collagen accumulation: increases
rats
  survival in high O2 exposure: increase
[1]
  lung injury after intratracheal LPS: significantly improved
  pulmonary inflammation and cell apoptosis: down-regulated
Polymicrobial sepsis
  lung injury in polymicrobial sepsis: significantly attenuated
NF-κB
  LPS-induced pulmonary early and late NF-κB activation: inhibited

## CC(=O)N[C@@H](CS)C(=O)O [N-acetylcysteine]
Angiotensin II
  Ang II-stimulated DNA synthesis, cell migration, pro-collagen α1(I) mRNA expression, secretion of TGF-β1 and inflammatory cytokines: attenuated

## CC#CCC(C)[C@H](O)/C=C/[C@@H]1[C@H]2C/C(=C/CCCC(=O)O)C[C@H]2C[C@H]1O (stereo partly drawn) [Iloprost]
CTGF [2]
  increase in collagen synthesis: blocks
  induction of CTGF: blocks
CTGF [3]
  dermal CTGF levels: marked decrease
